Test results as given in patent US20150352075A1, “Treatment of Alzheimer's and Cognitive Impairment With Andrographolides” (INNOBIOSCIENCE, LLC, priority 2013, published 2015).

B1: Wnt-3a: conditioned medium of Wnt3a ligand, the canonical Wnt ligand (protein, UniProt P56704 19-352, looked up)
Protein Wnt-3a: SYPIWWSLAVGPQYSSLGSQPILCASIPGLVPKQLRFCRNYVEIMPSVAEGIKIGIQECQHQFRGRRWNCTTVHDSLAIFGPVLDKATRESAFVHAIASAGVAFAVTRSCAEGTAAICGCSSRHQGSPGKGWKWGGCSEDIEFGGMVSREFADARENRPDARSAMNRHNNEAGRQAIASHMHLKCKCHGLSGSCEVKTCWWSQPDFRAIGDFLKDKYDSASEMVVEKHRESRGWVETLRPRYTYFKVPTERDLVYYEASPNFCEPNPETGSFGTRDRTCNVSSHGIDGCDLLCCGRGHNARAERRREKCRCVFHWCCYVSCQECTRVYDVHTCK
modifications: conditioned medium

What was measured:
HEK293T cells = assay: TOPflash/FOPflash luciferase reporter assay; assay type: cell-based
Protocol: 150,000 HEK293T cells were seeded in triplicate per condition and kept for 24 hours at 37° C. with 5% CO2. The cultures were transfected with TOPflash or FOPflash (400 ng), which are firefly-luciferase reporter DNA constructs (Milipore), using LipofectAMINE 2000 (Invitrogen). To control for transfection pRL-TK (10 ng) was included in all transfections. […] Values were normalized by the renilla value from the same well. To statistically compare treatments ANOVA was used.

[1] = test system: Wnt target genes in cultured hippocampal neurons; assay: PCR array of Wnt target genes in hippocampal neurons; assay type: cell-based, rat
Protocol: Primary culture of rat hippocampal neurons. […] PCR-ARRAY. RNA from hippocampal neurons was extracted using Trizol. Quantification and purity of RNA preparations were checked by absorbance using Nanodrop ND-2000. Only preparations with a 260/280 nm ratio ≧1.8, a 260/230 nm ratio ≧1.7 and no sign of RNA degradations, verified by agarose gel electrophoresis with Gel Red™ were used. Genomic DNA was degraded. Using RT2First-Strand cDNA Synthesis kit (SuperArray), 1 ng total RNA was reverse transcribed and then real-time PCR was performed by adding cDNA directly to PCR Master Mix, containing SYBR Green and ROX. The mixtures were then aliquoted into a 96-well PCR array plates, which profiles the expression of 84 Wnt target genes from rat. The PCR was run on ABI StepOnePlus, with 1 cycle of 10 min at 95° C. followed by 40 cycles of 15s at 95° C. and 1 min at 60° C. […] Treatment of neuronal cultures. Primary hippocampal cultures of neurons 14 DIV were washed twice in neurobasal medium and maintained for 1 hour. Next ANDRO (10 μM) and 6-BIO (10 μM) were added to different time periods.

[2] = test system: Wnt/β-catenin pathway in hippocampal slices; assay: Wnt pathway mechanism in hippocampal slices (sFRP, Dkk-1, Dvl-3 mobility shift, time course); assay type: cell-based, mice; conditions: for time at which total levels of β-catenin increased: slices from 2 month-old wild-type mice, 5 μM ANDRO, Wnt3a conditioned medium or 10 μM 6-B10
Protocol: Slice preparation. […] Transverse slices (250-300 μm) from the dorsal hippocampus were cut under oxygen-saturated cold artificial cerebrospinal fluid using a Vibroslice microtome (VSL, World Precision Instruments, Inc WPI, Sarasota, Fla.). After obtained, slices were incubated in ACSF for at least than one hour at room temperature, in order to stabilize activity. In every moment during dissection, slicing and experimentation slices were oxygenated with 95% oxygen-5% carbon dioxide.
Briefly, tissues were homogenized in RIPA buffer (10 mM Tris-Cl, pH 7.4, EDTA 5 mM, 1% NP-40, 1% sodium deoxycholate, and 1% SDS) supplemented with a protease inhibitor mixture (1 mM PMSF, 2 μg/mL aprotinin, 1 μg/mL pepstatin and 10 μg/mL benzamidine) and phosphatase inhibitors (25 mMNaF, 100 mM Na3VO4, 1 mM EDTA and 30 μM Na4P207) using a Potter homogenizator and then passed sequentially through different caliber syringes. […] Protein concentration was determined using the BCA Protein Assay Kit (Pierce). Samples were resolved by […] 10% SDS-PAGE and transferred to a PVDF membrane. The reactions were followed by incubation with anti-mouse, anti-goat or anti-rabbit IgG peroxidase conjugated (Pierce, Rockford, Ill.) and developed using an ECL kit (Western Lightning Plus ECL, PerkinElmer).

[3] = test system: CA3-CA1 connections in hippocampal slices; assay: Electrophysiology (fEPSP, PPF, LTP, LTD) in Wt hippocampal slices; assay type: cell-based, mice; conditions: hippocampal slices, LFS
Protocol: Slices were transferred to an experimental chamber (2 ml), superfused (3 ml/min, at 20-22° C.) with gassed ACSF and visualized by trans-illumination with a binocular microscope (MSZ-10, Nikon, Melville, N.Y.). […] The stimulation was in the Stratum Radiatum within 100-200 μm from the recording site. The paired pulse facilitation index was calculated by ((R2−R1)/R1), where R1 and R2 were the peak amplitudes of the first and second fEPSP respectively. To generate LTP we used Theta Burst Stimulation (TBS) consisting of 5 trains of stimulus with an inter-train interval of 20 s. Each train consisted of 10 bursts at 5 Hz and each burst having 4 pulses at 100 Hz. To generate LTD we used Low Frequency Stimulation (LFS) consisting in 900 paired pulses at 1 Hz. Recordings were filtered at 2.0-3.0 kHz, sampled at 4.0 kHz using an A/D converter, and stored with pClamp 10 (Molecular Devices). Evoked postsynaptic responses were analyzed off-line, using an analysis software (pClampfit, Molecular Devices), which allowed visual detection of events, computing only those events that exceeded and arbitrary threshold.

Molecule	FOPflash reporter activity (HEK293T cells; 10 μM, 24 h)	TOPflash reporter activity (HEK293T cells; 10 μM, 24 h)	increase of luciferase reporter over control (HEK293T cells; HEK293T, TOPflash) [fold]	Cdh-1 gene expression [1]	number of Wnt target genes specifically modulated ([1]; 9 h, of the 86 genes analyzed) [genes]	number of modulated Wnt target genes shared by both treatments ([1]; 9 h, of the 86 genes analyzed)	speed of increase in GSK3β pSer-9 and decrease in pTyr-216 ([2]; compared to Wnt-3a treatment)	time at which total levels of β-catenin increased [2] [min]	induction of LTD [3]	inhibition of β-catenin accumulation by Wnt antagonists sFRP and Dkk-1 ([2]; antagonist 15 min prior, 5 μM ANDRO or Wnt3a conditioned medium for 1 h)
O=C1Nc2cc(Br)ccc2/C1=C1/Nc2ccccc2/C1=N\O [6-B10, 6-bromoindirubin-3′-oxime, reference compound]	not in the FOPflash	significant increase in the TOPflash	~6	does not by 6-B10	4	4	faster	15	complete inhibition of the induction of LTD	–
B1	–	–	–	–	–	–	–	45	–	inhibit the accumulation of β-catenin in the presence of Wnt3a
